Measurements published in patent US20060188995A1, “Process, composition and kit for providing a stable whole blood calibrator/control” (priority 2005, published 2006).

Tests used:
[1] = tested on: glycolysis in whole blood; assay: Glucose stability of whole blood specimens with added D,L glyceraldehyde, YSI glucose concentration over weeks of storage; format: cell-based; details: about 2° C. to about 10° C.
Method: FIG. 4 illustrates the YSI glucose concentration (mg/dL) of blood specimens containing EDTA at various final concentrations of a mixture of D,L glyceraldehydes at 0.0, 1.0, 5.0, 10.0 and 20.0 mM, obtained over 4 weeks of real time testing at about 2° C. to about 10° C.; FIG. 5 illustrates the YSI 2300 (reference analyzer) glucose concentration (mg/dL) of blood specimens treated at various concentrations of D,L glyceraldehyde over 3 weeks at about 2° C. to about 10° C., wherein the control is an untreated blood sample; In one method, a sample containing a cellular component, (i.e. RBCs, WBCs) is collected into a microfuge or vacuum tube, e.g. VACUTAINER®, (such as supplied by Becton, Dickinson and Company, Franklin Lakes, N.J.). The initial concentration of glucose in the sample can be […]. The vacuum tube may contain any appropriate anticoagulant agent known to one of ordinary skill, including oxalate, EDTA, citrate, heparin or combination thereof, to form a suspension. If used, the anticoagulant may be added together simultaneously, or sequentially, to the sample. The resulting suspension is incubated at about 2° C. to about 30° C. and allowed to undergo glycolysis until the glucose level is less than about 20 mg/dL. […]

red blood cells = assay: RBC treatment with glyceraldehyde and subsequent removal; glucose recovery of RBCs recombined with plasma and glucose; format: cell-based, human; details: RBCs treated with 20, 35, and 50 mM for 72 hours at 2 to 10° C., washed, after 34 days, FIG. 6
Method: FIG. 6 illustrates the YSI 2300 (reference analyzer) glucose concentration (mg/dL) of blood specimens at various concentrations of D,L glyceraldehyde respectively over 4 weeks at about 2° C. to about 10° C., wherein the control is untreated blood sample. Red blood cells were treated, washed and recombined with plasma and glucose. RBC Treatment w Glyceraldehyde & Subsequent Removal • 1) Employ fresh whole blood collected in standard anticoagulant (i.e. EDTA, heparin, sodium citrate) from a healthy adult population. Alternative blood sources may include bovine, avian, porcine, equine, goat, or alligator. • 2) Allow sufficient time for the natural enzymatic breakdown of glucose to occur (i.e. glycolysis). Deplete glucose concentration to less than about 20 mg/dl. Preferred storage at 2°-30°C. • 3) Separate RBC cellular component from plasma fraction via gravity settling and or centrifugation. If desired, the removed plasma fraction may be retained for reintroduction. • 4) Wash RBC cellular component with isotonic phosphate buffered saline solution (3×). Exchange diluent via centrifugation is preferred (15 minutes @ 1500 rpm (650× g). • 5) Adjust RBC concentration to approximately 4.0×10^6/mm^3±0.25×10^6/mm^3. […]

[2] = tested on: glycolysis in whole blood; details: final concentration about 0.9 to 20 mM; testing within 16 hours; cited from earlier work

## O=CC(O)CO (racemic) [D,L glyceraldehyde, 2,3-dihydroxypropanal]
[1]; 20.0 mM D,L glyceraldehyde in EDTA blood, at 4 weeks, FIG. 4
  loss of YSI glucose concentration: less than 10%
[1]; 30.0 mM D,L glyceraldehyde in EDTA blood, glucose burned down then added back, at 3 weeks, FIG. 5
  loss of YSI glucose concentration: less than 3.5%
Red blood cells
  loss in glucose recovery: < 5%
[2]
  glucose loss of stabilized whole blood sample: negligible glucose loss
